Data reported in patent US20110002993A1, “FILM COATED TABLETS CONTAINING DROSPIRENONE AS ACTIVE AGENT AND A METHOD FOR THE PREPARATION THEREOF” (RICHTER GEDEON NYRT., priority 2007, published 2011).

Experiment: solubility of drospirenone in water
Type: physicochemical
Source text: For dissolution of such a large amount of active agent a large amount of pharmaceutically and environmentally acceptable solvent is needed. […] In the preparation process according to the invention the solvent is ethanol. Ethanol is the most advantageous solvent from the environmental and safety point of views.

In the case of C[C@]12CCC(=O)C=C1[C@@H]1C[C@@H]1[C@H]1[C@@H]3[C@@H]4C[C@@H]4[C@@]4(CCC(=O)O4)[C@@]3(C)CC[C@@H]12 [drospirenone, 6β,7β;15β,16β-dimethylene-3-oxo-17α-pregn-4-en-21,17-carbolactone], the solubility in water is reported as “substantially insoluble in water”.
